# Legend:
# Assay type in all cases: cell-based
# [1] = test system: apoptotic cells in human skin explants; assay: Apoptotic sunburn cells in human skin explants after UV-irradiation; details: 500 μM
# Experimental: FIGS. 14 and 15 illustrate the effect of the polypeptide IK34720 (SEQ ID NO: 3) on the number of apoptotic cells in human skin explants.
# Skin explants were cultured irradiated and treated as described above for CPD, and subsequent to treatment were stained and quantified as described for Example 6.
# dermal fibroblasts = assay: TBARS lipid peroxidation assay in UV irradiated dermal fibroblasts; details: highest concentration (5 μM) of peptide; FIG. 19
# Experimental: The ability of the polypeptide RSKAKNPLYRRRRRRRRR to alter UV-induced oxidative damage of cell-derived lipids was examined using the TBARS thiobarbituric acid-reactive substances (TBARS) lipid peroxidation assay.
# After irradiation or sham-irradiation of dermal fibroblasts, supernatants (900 μL) were collected. In brief, 90 μL of butylated hydroxytoluene (2% w/w in ethanol) was added and samples kept frozen (−20° C.) until the TBARS assay. Petri dishes were washed twice with 1 mL of HBSS, cells scraped in 600 μL of water and 60 μL of 0.5% aqueous Triton X100 added to this solution, for protein determination carried out by the Lowry method (Lowry OH et al, J. Biol. Chem., 1951, 193:265-275). TBARS were fluorometrically assayed as described (Morlière P et al, Biochim. Biophys. Acta, 1991, 1084:261-268). Briefly, thawing samples were heated in the presence of thiobarbituric acid in acidic conditions, and TBARS extracted with 1-butanol and fluorometrically quantified (λexc=515 nm and λem=550 nm). Tetraethoxypropane, which quantitatively yields the malondialdehyde-thiobarbituric acid adduct in the assay conditions, was used for calibration. TBARS values, expressed in malondialdehyde (MDA) equivalents, were normalized to the cell protein for each Petri dish. Each TBARS determination was performed in triplicate (e.g., with three Petri dishes per data point).
# primary keratinocytes = assay: ATP levels in primary keratinocytes exposed to ssUV (CellTiter-Glo 2.0 Assay); details: 1.5 hours after UVR, FIG. 4
# Experimental: The influence of the polypeptide IK34720 (SEQ ID NO: 3) on intracellular ATP following UV exposure was assessed using the following protocol.
# Primary keratinocytes were harvested as described above in Example 2 and were either exposed to ssUV-irradiation (UVR), as described above in Example 2 or not irradiated (SHAM), in the presence or absence of Calcitriol (positive control) or polypeptide IK34720 (SEQ ID NO: 3; RSKAKNPLYRRRRRRRRR), at the concentrations described in Example 2.
# ATP levels were determined 1.5 hours after UVR using the CellTiter-Glo® 2.0 Assay (Promega, Wis., USA) as described previously (Rybchyn et al., vide supra, 2017). All data in FIG. 4 is shown as mean±SD. *p<0.05, **p<0.01. Cells were prepared and irradiated as described above.
# CREB-S133 = assay: CREB phosphorylation in primary keratinocytes after solar simulated UV-irradiation (western blot); details: 0.1, 1 and 5 μM added immediately after ssUV, FIG. 3A
# Experimental: The influence of the polypeptide IK34720 (SEQ ID NO: 3) on CREB phosphorylation was assessed using the following protocol.
# Keratinocytes were harvested and cultured as previously described (Gupta et al., J Invest Dermatol, 2007, 127(3):707-215). Keratinocytes, (passages 1-5) from 3 independent donors were used in the experiments illustrated in FIG. 3.
# Positive control treatment (denoted “D” in FIG. 3) was prepared by solubilizing Calcitriol (1,25-dihydroxyvitamin D3 (1,25(OH)2D3)—Cayman Chemical, Mich., USA) in 100% spectroscopic ethanol (Merck, Darmstadt, Germany) and the final concentration was determined by spectroscopy (NanoDrop 2000, Thermo Fisher Scientific, Mass., USA). The polypeptide IK34720 (SEQ ID NO: 3) was solubilised in phosphate buffered saline (PBS) to a concentration of 1 mM at pH 7.2. A vehicle (denoted as “V” in FIG. 3) constituting 0.1% (v/v) spectroscopic ethanol and 0.1% (v/v) PBS was prepared for use as a negative control.
# Cultured cells were irradiated by solar simulated UV-irradiation (ssUV) using an Oriel 1000W xenon-arc lamp (Stratford, Conn., USA). Irradiation was administered at an energy level of 400 mJ/cm^2 for UVB and 3600 mJ/cm^2 for UVA (total 4000 mJ/cm^2), measured by an OL754 radiometer (Optronics Laboratories Inc., Orlando, Fla.). This dosage equates to approximately 4 min irradiation of the sun at 12 noon in October in Sydney, Australia. […]
# [2] = test system: Cyclobutane pyrimidine dimers (CPDs) in primary keratinocytes; assay: CPD detection by IHC in keratinocytes after UV-irradiation in vitro
# Experimental: An in vitro assay was conducted allowing for densitometry analysis of CPD detection by IHC in keratinocytes 3 h following UV-irradiation in accordance with the following protocol.
# Keratinocytes were harvested and cultured as described above at Example 2. Samples were split into two groups, being UV irradiated (UVR) and non-UV irradiated (SHAM). UV-irradiation was performed by solar simulated UV-irradiation for cells, also as described above at Example 2. Irradiation solution was PBS containing 5 mM D-glucose. […]
# Harvested keratinocytes were plated on poly-D-lysine coated coverslips in 96 well plates and irradiated (or sham treated) as described above in at Example 2 in PBS containing 5 mM D-glucose. Keratinocytes were fixed 3 h after UV-irradiation. Immunohistochemistry and image analysis were performed as described previously (Gordon-Thomson et al., Photochem Photobiol Sci, 2012, 11(12):1837-47; Gupta et al., vide supra, Rybchyn MS et al., J Invest Dermatol, 2018;138(5):1146-1156). Thymine dimers were detected using the anti-thymine dimer antibody (Sigma-Aldrich, Mo., USA) at 10 μg/mL, and quantified as an index of CPD, as previously described (Douki T and Cadet J, Biochemistry,2001, 40(8):2495-501).
sequence,measurement,setting,value
"RSKAKNPLYRRRRRRRRR [IK34720, 18-residue polypeptide: … with a C-terminal polyarginine region of 8 arginines]",number of apoptotic cells,"[1]; 3 hrs post UV-irradiation, FIG. 14",statistically significantly reduces the number of apoptotic cells
same,number of apoptotic cells,"[1]; 24 hrs post UV-irradiation, FIG. 15",statistically significantly reduces the number of apoptotic cells
same,significant difference in TRS (TBA reactive substances) between Sham and UV irradiation,dermal fibroblasts,not seen
same,ATP levels,primary keratinocytes,enhanced the ATP levels
same,UV-induced phosphorylation of CREB S-133,CREB-S133,inhibits UV-induced phosphorylation of serine at position 133 of CREB
same,CPD levels vs keratinocytes treated with Calcitriol,"[2]; 5 μM, 3 h after UV",comparable reduction in CPD levels
same,CPD levels vs vehicle-treated UV-irradiated keratinocytes,"[2]; 5 μM, 3 h after UV",statistically significant (*p<0.05) reduction in CPD levels
same,CPD formation (average intensity of CPD staining) vs positive control,"[2]; 10 uM, FIG. 8B","more effective at inhibiting CPD formation than the positive control 1,25 D"
same,CPD levels,"[2]; 0.5, 1, 2.5 or 5 μM after ssUV, keratinocytes fixed 3 h after UV, FIGS. 7 and 8",decreases CPD levels in primary keratinocytes exposed to solar simulated UV-irradiation in a dose dependent manner
